Seven compounds from patent US6787557B2 (priority 2000, dated 2004) can be followed below.

In experiment [1] the test system is rice blast fungi. The experiment is classed as in vivo, Pyricularia oryzae.
Experiment [2] has as its system rice blast fungi. The experiment is classed as in vivo, Pyricularia oryzae. The source holds these as a separate data set.

Several values for one entry are separate records, joined by “and”; a condition that tells them apart may be missing. Equal entries are not always repeated. Where two headings read alike, the source gives them in different places.

Turning to `Cc1nc2c(F)cc(C(C)(C)C)cc2c(O)c1C` [Compound 1, 2,3-dimethyl-6-t-butyl-8-fluoro-4-hydroxyquinoline], the Protective value in the experiment with rice blast fungi [1] (3 ppm) worked out at 93; in the experiment on rice blast fungi [1] (10 ppm), 100.
Turning to “2,3-dimethyl-6-t-butyl-8-fluoro-4-n-propoxycarbonyl-quinoline [Compound 8]”, the Protective value in the experiment with rice blast fungi [1] (in vivo) is 100 and 92; in the experiment with rice blast fungi [2] (in vivo), 98 and 84.
On to “2,3-dimethyl-6-t-butyl-8-fluoro-4-butyrylquinoline [Compound 4]”, for which the Protective value in the experiment on rice blast fungi [2] (37.5 ppm) is 66; in the experiment on rice blast fungi [2] (75 ppm) it was 94.
Turning to “2,3-dimethyl-6-t-butyl-8-fluoro-4-n-butoxycarbonyl-quinoline [Compound 9]”, the Protective value is 99 and 90 in the experiment with rice blast fungi [1] (in vivo); 98 and 87 in the experiment with rice blast fungi [2] (in vivo).
As for “2,3-dimethyl-6-t-butyl-8-fluoro-4-valerylquinoline [Compound 5]”, the Protective value in the experiment with rice blast fungi [1] (3 ppm) was 84; in the experiment on rice blast fungi [1] (10 ppm), 99; in the experiment with rice blast fungi [2] (37.5 ppm), 82; in the experiment on rice blast fungi [2] (75 ppm), 95.
With “2,3-dimethyl-6-t-butyl-8-fluoro-4-acetoxyacetylquinoline [Compound 11]”, the Protective value in the experiment with rice blast fungi [1] (3 ppm) is on record as 94; in the experiment with rice blast fungi [1] (10 ppm), 100; in the experiment on rice blast fungi [2] (30 ppm), 88; in the experiment with rice blast fungi [2] (100 ppm), 99.
As for “2,3-dimethyl-6-t-butyl-8-fluoro-4-methoxyacetylquinoline [Compound 10]”, the Protective value in the experiment with rice blast fungi [1] (3 ppm) is on record as 99; with rice blast fungi [1] (10 ppm), 100; in the experiment with rice blast fungi [2] (30 ppm) it was 90; with rice blast fungi [2] (100 ppm), 100.
